Assay results from ChEMBL document CHEMBL3621179, “Styrylphenylphthalimides as Novel Transrepression-Selective Liver X Receptor (LXR) Modulators” (ACS Med Chem Lett, 2015).
Activity calls are given as the source filed them. The rule behind the calls is not given here.

Key:
[1] = biological target: T1, Peroxisome proliferator-activated receptor alpha (Homo sapiens) (UniProt Q07869); assay: Agonist activity at PPAR-alpha (unknown origin) by luciferase reporter gene assay
T1 sequence (whole entry): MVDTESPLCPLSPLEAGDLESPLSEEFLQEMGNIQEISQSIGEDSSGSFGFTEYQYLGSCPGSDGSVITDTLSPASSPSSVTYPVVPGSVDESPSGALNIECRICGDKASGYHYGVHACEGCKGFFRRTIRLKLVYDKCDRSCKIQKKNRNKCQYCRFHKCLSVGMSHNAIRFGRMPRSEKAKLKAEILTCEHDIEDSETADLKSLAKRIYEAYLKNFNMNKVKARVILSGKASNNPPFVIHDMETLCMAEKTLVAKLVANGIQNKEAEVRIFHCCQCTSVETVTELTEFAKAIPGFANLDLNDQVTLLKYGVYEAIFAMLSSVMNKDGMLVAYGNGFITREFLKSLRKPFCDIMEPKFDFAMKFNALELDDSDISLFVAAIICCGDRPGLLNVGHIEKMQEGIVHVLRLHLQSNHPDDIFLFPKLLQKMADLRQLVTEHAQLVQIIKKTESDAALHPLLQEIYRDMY

THP-1 [2] = assay: Effect on SREBP-1c gene expression in human THP1 cells at 10 uM by RT-PCR analysis; type: functional, cell-based
THP-1 [3] = assay: Effect on ABCA1 gene expression in human THP1 cells at 10 uM by RT-PCR analysis; type: functional, cell-based
THP-1 [4] = assay: Inhibition of LPS-induced IL-6 production in human THP1 cells transfected with LXR-beta CRISPR/Cas9 knockout plasmid at 5 uM after 18 hrs by ELISA; type: functional, cell-based
[5] = biological target: Oxysterols receptor LXR-alpha (Homo sapiens, UniProt Q13133); assay: Antagonist activity at human LXR-alpha transfected in HEK293 cells after 16 hrs by luciferase reporter gene assay in presence of 0.3 uM N-(4-(1,1,1,3,3,3-hexafluoro-2-hydroxypropan-2-yl)phenyl)-N-(2,2,2-trifluoroethyl)benzenesulfonamide; type: cell-based
Sequence of Oxysterols receptor LXR-alpha (Q13133 whole entry): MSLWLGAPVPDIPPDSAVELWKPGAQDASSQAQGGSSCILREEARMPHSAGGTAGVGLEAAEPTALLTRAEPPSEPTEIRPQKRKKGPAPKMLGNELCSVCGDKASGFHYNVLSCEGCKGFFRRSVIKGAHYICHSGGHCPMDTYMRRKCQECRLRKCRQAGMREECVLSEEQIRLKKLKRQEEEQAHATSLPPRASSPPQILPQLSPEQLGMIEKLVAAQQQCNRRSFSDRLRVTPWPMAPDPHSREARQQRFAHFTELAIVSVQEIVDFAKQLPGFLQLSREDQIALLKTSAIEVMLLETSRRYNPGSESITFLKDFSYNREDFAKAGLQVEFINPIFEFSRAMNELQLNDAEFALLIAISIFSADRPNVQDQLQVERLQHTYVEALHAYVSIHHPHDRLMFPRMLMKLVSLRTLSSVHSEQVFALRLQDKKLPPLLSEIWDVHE

[6] = biological target: T2, Peroxisome proliferator-activated receptor gamma (Homo sapiens) (UniProt P37231); assay: Agonist activity at PPAR-gamma (unknown origin) by luciferase reporter gene assay
T2 sequence (whole entry): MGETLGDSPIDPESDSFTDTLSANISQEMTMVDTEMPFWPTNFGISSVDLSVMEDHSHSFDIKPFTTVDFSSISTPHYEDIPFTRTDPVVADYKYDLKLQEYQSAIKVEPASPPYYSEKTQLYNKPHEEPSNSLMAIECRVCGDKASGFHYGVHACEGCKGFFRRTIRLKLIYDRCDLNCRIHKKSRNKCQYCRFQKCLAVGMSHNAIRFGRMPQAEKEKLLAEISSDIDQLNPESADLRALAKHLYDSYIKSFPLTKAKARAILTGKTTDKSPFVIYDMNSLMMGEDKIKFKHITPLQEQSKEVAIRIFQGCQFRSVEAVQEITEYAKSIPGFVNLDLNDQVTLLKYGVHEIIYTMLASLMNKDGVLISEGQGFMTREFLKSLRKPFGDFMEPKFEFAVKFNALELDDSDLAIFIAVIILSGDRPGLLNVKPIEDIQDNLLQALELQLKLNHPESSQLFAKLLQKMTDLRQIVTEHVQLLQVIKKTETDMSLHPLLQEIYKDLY

[7] = biological target: T3, Oxysterols receptor LXR-beta (Homo sapiens, UniProt P55055); assay: Antagonist activity at human LXR-beta transfected in HEK293 cells after 16 hrs by luciferase reporter gene assay in presence of 0.1 uM N-(4-(1,1,1,3,3,3-hexafluoro-2-hydroxypropan-2-yl)phenyl)-N-(2,2,2-trifluoroethyl)benzenesulfonamide; type: cell-based
T3 sequence (P55055 whole entry, the tested form may be a part): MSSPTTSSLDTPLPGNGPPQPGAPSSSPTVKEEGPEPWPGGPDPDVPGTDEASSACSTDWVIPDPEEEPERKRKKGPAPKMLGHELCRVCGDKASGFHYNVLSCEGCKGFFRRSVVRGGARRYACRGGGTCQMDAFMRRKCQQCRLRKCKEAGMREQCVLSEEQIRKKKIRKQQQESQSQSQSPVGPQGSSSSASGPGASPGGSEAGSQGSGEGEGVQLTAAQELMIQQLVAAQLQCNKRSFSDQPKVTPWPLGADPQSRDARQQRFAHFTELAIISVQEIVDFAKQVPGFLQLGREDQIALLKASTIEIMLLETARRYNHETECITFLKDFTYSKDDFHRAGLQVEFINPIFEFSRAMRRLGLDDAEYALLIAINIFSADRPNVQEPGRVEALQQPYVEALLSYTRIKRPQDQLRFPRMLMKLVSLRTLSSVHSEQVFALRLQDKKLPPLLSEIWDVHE

[8] = biological target: T3, Oxysterols receptor LXR-beta; assay: Binding affinity to LXR-beta ligand binding domain (unknown origin) by TR-FRET assay in presence of 0.1 uM agonist N-(4-(1,1,1,3,3,3-hexafluoro-2-hydroxypropan-2-yl)phenyl)-N-(2,2,2-trifluoroethyl)benzenesulfonamide
[9] = biological target: T4, Peroxisome proliferator-activated receptor delta (Homo sapiens) (UniProt Q03181); assay: Agonist activity at PPAR-delta (unknown origin) by luciferase reporter gene assay
T4 sequence (whole entry): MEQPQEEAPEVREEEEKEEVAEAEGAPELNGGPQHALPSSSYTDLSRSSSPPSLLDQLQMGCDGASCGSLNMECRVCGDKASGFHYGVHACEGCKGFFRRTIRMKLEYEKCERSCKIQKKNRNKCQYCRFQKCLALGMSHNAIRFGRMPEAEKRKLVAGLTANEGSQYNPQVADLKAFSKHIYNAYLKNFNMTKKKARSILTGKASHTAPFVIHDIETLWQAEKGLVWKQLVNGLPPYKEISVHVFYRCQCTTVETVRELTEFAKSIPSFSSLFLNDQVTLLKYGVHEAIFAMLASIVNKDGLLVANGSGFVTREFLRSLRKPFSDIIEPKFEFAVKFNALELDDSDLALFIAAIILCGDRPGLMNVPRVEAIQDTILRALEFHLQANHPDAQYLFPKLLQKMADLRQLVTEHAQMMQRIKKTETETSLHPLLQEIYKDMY

| Structure (SMILES) | inhibition [1] | Activity (THP-1 [2]) | Activity (THP-1 [3]) | inhibition (THP-1 [4]) | IC50 [5] [µM] | inhibition [6] | IC50 [7] [µM] | IC50 [8] [µM] | inhibition [9] |
| --- | --- | --- | --- | --- | --- | --- | --- | --- | --- |
| COc1ccc(/C=C/c2ccccc2N2C(=O)c3ccccc3C2=O)cc1OC | Active | inactive | inactive | inactive | 3.3 | Active | 4.3 | 1.8 | Active |
| COc1ccc(/C=C\c2ccccc2N2C(=O)c3ccccc3C2=O)cc1OC |  |  |  |  | 17 |  | 21 |  |  |
